The PolyMetriX glass transition set

Row | Compound | glass transition temperature
1 | *c1ccc(Cc2cccc(-n3c(=O)c4cc5c(=O)n(*)c(=O)c5cc4c3=O)c2)cc1 (repeat unit) | 339.00 °C
2 | *C(=O)c1ccc2c(c1)C(=O)N(c1ccc(C(=O)c3ccccc3N3C(=O)c4ccc(*)cc4C3=O)cc1)C2=O (repeat unit) | 289.00 °C
3 | *CC(*)C(=O)OCC(F)(F)C(F)(F)C(F)(F)C(F)F (repeat unit) | -35.00 °C
4 | *c1ccc(-c2cnc3ccc(S(=O)(=O)c4ccc5ncc(*)nc5c4)cc3n2)cc1 (repeat unit) | 342.00 °C
5 | */C=C/C1CC(*)C(C#N)(CCC)C1 (repeat unit) | 108.00 °C
6 | *CCCCCNC(=O)CCCCC(=O)N* (repeat unit) | 46.50 °C
7 | *CC(*)n1ccnc1 (repeat unit) | 175.00 °C
8 | *Oc1cccc(Oc2cccc(NC(=O)c3cc(Oc4ccc(C(=O)O)c(C(=O)Nc5cccc(*)c5)c4)ccc3C(=O)O)c2)c1C#N (repeat unit) | 200.10 °C
9 | */C=C(/*)c1c(C)cc(C(C)(C)C)cc1C (repeat unit) | 200.00 °C
10 | *CC(*)(C)C(=O)OCC1CO1 (repeat unit) | 68.50 °C
11 | *Oc1c(OC)cc(-c2cc(OC)c(OC(=O)c3cccc(C(*)=O)c3)c(OC)c2)cc1OC (repeat unit) | 252.00 °C
12 | *C(=O)OC1CC2CC(OC(=O)N3CCN(*)CC3)CC(C1)O2 (repeat unit) | 113.00 °C
13 | *c1ccc(Oc2ccc(C(=O)c3ccc(Oc4ccc(-c5c6c(c(*)c7ccccc57)C(=O)N(c5ccccc5-c5ccccc5)C6=O)cc4)cc3)cc2)cc1 (repeat unit) | 245.00 °C
14 | *CC(*)C(=O)Oc1ccccc1C(=O)OCC (repeat unit) | 30.00 °C
15 | *c1ccc(Oc2ccc(C(=O)c3ccc(C(=O)c4ccc(Oc5ccc(-c6nc(-c7ccc(-c8nc(*)c(-c9ccccc9)[nH]8)cc7)[nH]c6-c6ccccc6)cc5)cc4)cc3)cc2)cc1 (repeat unit) | 278.00 °C
16 | *CC(*)c1cc(C(=O)OCCCCCCCC)ccc1-c1ccc(OCCCCCCCC)cc1 (repeat unit) | 57.00 °C
17 | *OP(=O)(Oc1ccccc1)Oc1ccc(-c2ccc(*)cc2)cc1 (repeat unit) | 112.00 °C
18 | *c1cccc(P(=O)(c2cccc(-n3c(=O)c4cc5c(=O)n(*)c(=O)c5c(-c5ccc(C(F)(F)F)cc5)c4c3=O)c2)c2cc(C(F)(F)F)cc(C(F)(F)F)c2)c1 (repeat unit) | 292.00 °C
19 | *CC(*)(C)C(=O)OCCN(C)c1ccc(/N=N/c2ccc([N+](=O)[O-])cc2)cc1 (repeat unit) | 110.00 °C
20 | *CC(*)C(=O)OCC(C)O (repeat unit) | -7.00 °C
21 | *Oc1c(C)cc(C(c2cc(C)c(OC(*)=O)c(C)c2)(C(F)(F)F)C(F)(F)F)cc1C (repeat unit) | 208.00 °C
22 | *CC(*)C(=O)Oc1ccc(Cl)cc1Cl (repeat unit) | 60.00 °C
23 | *CCCCCCCCCCCNC(=O)CCCCCCCCCCCCCCCCCCC(=O)N* (repeat unit) | 29.00 °C

Row | Compound | glass transition temperature
24 | *CCCCCC(=O)Oc1ccc(C(C)(C)c2ccc(OC(=O)c3ccc4c(c3)C(=O)N(*)C4=O)cc2)cc1 (repeat unit) | 110.00 °C
25 | *Oc1ccc(/C=C2\CC/C(=C\c3ccc(OC(=O)c4ccc(/N=C/c5ccc(/C=N/c6ccc(C(*)=O)cc6)cc5)cc4)c(OC)c3)C2=O)cc1OC (repeat unit) | 140.00 °C
26 | *CC(O)COc1ccc(C(C)(C)c2ccc(OCC(O)COc3cccc(NC(=O)c4cccc(C(=O)Nc5cccc(O*)c5)c4)c3)cc2)cc1 (repeat unit) | 133.00 °C
27 | *Oc1cc(OC(=O)c2ccc(OCC(C)CC)cc2)c(OC(=O)CCCC(*)=O)cc1OC(=O)c1ccc(OCC(C)CC)cc1 (repeat unit) | 60.00 °C
28 | *Cc1cccc(CNC(=O)c2cccc(C(=O)N*)c2)c1 (repeat unit) | 172.00 °C
29 | *Nc1cc(NC(=O)c2ccc(C(*)=O)cc2)cc(C(=O)OCCOC(=O)/C=C/c2ccc(N(C)C)cc2)c1 (repeat unit) | 198.00 °C
30 | *CC(*)(C)C(=O)OCCCCCCOc1ccc(/N=N/c2ccncc2)cc1 (repeat unit) | 42.00 °C
31 | *Nc1ccc(NC(=O)c2ccc(C(=O)c3ccc(C(*)=O)c(C(=O)O)c3)cc2C(=O)O)cc1 (repeat unit) | 317.00 °C
32 | *Oc1cc(OC(=O)c2ccc(OCC)cc2)c(OC(=O)CCCC(*)=O)cc1OC(=O)c1ccc(OCC)cc1 (repeat unit) | 71.00 °C
33 | *CC1CC(COC(=O)c2ccc(C(=O)O*)cc2)CC(C(C)(C)C)C1 (repeat unit) | 118.00 °C
34 | *CCCCCCCCCCCCOC(=O)NCCCCCCNC(=O)O* (repeat unit) | 36.00 °C
35 | *O[Si](*)(C)CCCOCC1COC(=O)O1 (repeat unit) | -25.90 °C
36 | *CC(*)C(=O)N(C)C (repeat unit) | 114.00 °C
37 | *CC1CCCC(COC(=O)c2ccc(C(=O)O*)cc2)C1 (repeat unit) | 75.00 °C
38 | *CC(F)(F)C(F)(F)C(F)(F)C(F)(F)COC(=O)NCCCCCCNC(=O)O* (repeat unit) | -2.00 °C
39 | *CC(OC1CCCCC1)C1C(=O)OC(=O)C1* (repeat unit) | 201.00 °C
40 | *c1ccc(Oc2ccc(C(=O)c3cccc(C(=O)c4ccc(Oc5ccc(N6C(=O)c7ccc(Oc8ccc9c(c8)C(=O)N(*)C9=O)cc7C6=O)cc5C(F)(F)F)cc4)n3)cc2)c(C(F)(F)F)c1 (repeat unit) | 212.20 °C
41 | *c1ccc(Oc2ccc(Sc3ccc(Oc4ccc(-c5ccc(*)s5)cc4C(F)(F)F)cc3)cc2)c(C(F)(F)F)c1 (repeat unit) | 142.00 °C
42 | *CC(*)(C)C(=O)OCCC[Si]12O[Si]3(CC(C)C)O[Si]4(CC(C)C)O[Si](CC(C)C)(O1)O[Si]1(CC(C)C)O[Si](CC(C)C)(O2)O[Si](CC(C)C)(O3)O[Si](CC(C)C)(O4)O1 (repeat unit) | 85.00 °C
43 | *c1ccc(Oc2ccc(S(=O)(=O)c3ccc(Oc4ccc(-c5cc(*)n(-c6ccccc6)n5)cc4)cc3)cc2)cc1 (repeat unit) | 235.00 °C
44 | *c1ccc(Oc2ccc(-c3cccc4c3C(=O)N(Oc3ccc(C(=O)c5ccc(Oc6cccc7c6C(=O)N(*)C7=O)cc5)cc3)C4=O)cc2)cc1 (repeat unit) | 252.00 °C
45 | *c1ccc(Oc2ccc(N3C(=O)C(Cl)=C(Oc4ccc(C(c5ccc(OC6=C(Cl)C(=O)N(*)C6=O)cc5)(C(F)(F)F)C(F)(F)F)cc4)C3=O)cc2)cc1 (repeat unit) | 193.00 °C
46 | *Oc1ccc(CC(NC(=O)CCc2ccc(OC(=O)CCCCCCC(*)=O)cc2)C(=O)OCCOCCOCC)cc1 (repeat unit) | 6.00 °C

Row | Compound | glass transition temperature
47 | *CCCC(CCNC(=O)c1ccc(C(=O)N*)cc1)C(C)C (repeat unit) | 150.00 °C
48 | *c1cccc(N2C(=O)c3ccc(Oc4ccc5c(c4)C4(CC(C)(C)c6ccc(Oc7ccc8c(c7)C(=O)N(*)C8=O)cc64)CC5(C)C)cc3C2=O)c1 (repeat unit) | 253.00 °C
49 | *CCN(*)C(=O)CCCCCC (repeat unit) | 10.00 °C
50 | *CC(*)C(=O)OCCCCCCCCCCCn1c2ccccc2c2ccccc21 (repeat unit) | 15.00 °C
51 | *C(OC(F)(F)F)C(*)(F)F (repeat unit) | -10.00 °C
52 | *c1ccc(Oc2ccc(C(c3ccc(Oc4ccc(-c5nnc(*)n5-c5ccc(C)cc5)cc4)cc3)(C(F)(F)F)C(F)(F)F)cc2)cc1 (repeat unit) | 213.00 °C
53 | *Oc1ccc(Oc2cccc(*)n2)c(-c2ccccc2)c1 (repeat unit) | 115.00 °C
54 | *CC(c1ccccc1)C1C(=O)N(CCCCNC(=O)C(F)(F)C(F)(F)C(F)(F)C(F)(F)C(F)(F)C(F)(F)C(F)(F)F)C(=O)C1* (repeat unit) | 113.00 °C
55 | *CC(*)(C)C(=O)OCCCOc1ccc(C(=O)Oc2ccc3ccc(=O)oc3c2)cc1 (repeat unit) | 68.00 °C
56 | *CCCCCCCCCCn1c2ccccc2c2cc(/C=C(\C#N)C(=O)OCCCCCCOC(=O)/C(C#N)=C/c3ccc4c(c3)c3ccccc3n4*)ccc21 (repeat unit) | 94.50 °C
57 | *CCCCOC(=O)C1CCC(C(=O)O*)CC1 (repeat unit) | -10.50 °C
58 | *Oc1ccc(C(C)(c2ccccc2)c2ccc(OC(=O)OC3C(C)(C)C(OC(*)=O)C3(C)C)cc2)cc1 (repeat unit) | 149.00 °C
59 | *CC(*)(C)C(=O)OCCCCCCOc1ccc(/N=N/c2ccc(C3OCC4(CO3)CC3C=CC4C3)cc2)cc1 (repeat unit) | 118.50 °C
60 | *Oc1ccc(S(=O)(=O)c2ccc(OC(=O)OC3C(C)(C)C(OC(*)=O)C3(C)C)cc2)cc1 (repeat unit) | 162.00 °C
61 | *CCCCCCCCCCC(c1ccc(O)cc1)C(*)c1ccc(O)cc1C (repeat unit) | -4.00 °C
62 | *Oc1ccc(C(C)(C)C)cc1Oc1ccc(S(=O)(=O)c2ccc(*)cc2)cc1 (repeat unit) | 180.50 °C
63 | *CC(*)(C)C(=O)Oc1ccc(C(=O)/C=C/c2ccc(Cl)cc2)cc1 (repeat unit) | 127.00 °C
64 | *C(=O)Nc1ccc(Oc2ccc(C(C)(C)c3ccc(Oc4ccc(NC(=O)c5ccc(N6C(=O)c7ccc(*)cc7C6=O)cc5)cc4)cc3)cc2)cc1 (repeat unit) | 216.00 °C
65 | *CCN(CCOC(=O)Nc1cccc(NC(=O)O*)c1C)c1ccc(/C=C/c2ccc([N+](=O)[O-])cc2)cc1 (repeat unit) | 123.00 °C
66 | *C1C(=O)N(CCCCCCCOc2ccc(-c3ccc(C#N)cc3)cc2)C(=O)C1* (repeat unit) | 61.00 °C
67 | *c1ccc(Oc2ccc(N3C(=O)c4ccc(Sc5ccc6c(c5)C(=O)N(*)C6=O)cc4C3=O)cc2)cc1 (repeat unit) | 258.00 °C
68 | *CCCCCCNC(=O)Cc1ccc(C(=O)N*)cc1 (repeat unit) | 104.00 °C
